Experimental data as given in US9156796B2, “Benzoimidazole-carboxylic acid amide derivatives as APJ receptor modulators” (SANOFI, priority 2013, dated 2015).

biological target: T1, human apelin receptor (Homo sapiens, UniProt P35414); assay: Determination of agonism on the human apelin receptor by a calcium fluorescence assay (FLIPR); assay type: cell-based; settings: HEK293 cells stably transfected with human apelin receptor and Giaq protein, Fluo-4 calcium fluorescence, read-out: EC50 (APJ agonism)
T1 construct: expressed in transfected cells
T1 sequence (P35414 1-380): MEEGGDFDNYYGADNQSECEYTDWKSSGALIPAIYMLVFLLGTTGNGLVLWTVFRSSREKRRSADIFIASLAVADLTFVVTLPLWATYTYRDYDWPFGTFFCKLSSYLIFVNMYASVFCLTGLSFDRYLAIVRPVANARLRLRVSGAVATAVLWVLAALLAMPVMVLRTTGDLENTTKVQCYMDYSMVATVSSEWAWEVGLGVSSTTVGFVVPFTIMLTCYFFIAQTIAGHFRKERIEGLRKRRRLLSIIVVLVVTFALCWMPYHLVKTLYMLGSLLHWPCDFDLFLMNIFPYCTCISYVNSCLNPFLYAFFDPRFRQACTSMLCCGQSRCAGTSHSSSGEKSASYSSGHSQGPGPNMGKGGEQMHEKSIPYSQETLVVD
Procedure, shortened: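 HEK293 cells stably co-expressing human apelin receptor and promiscuous Giaq, loaded 1 h at 37 °C with Fluo-4 (4 μM) in probenecid-containing Hepes buffer, pH 7.4. Compounds, at least 7 concentrations in triplicate, added in FLIPR Tetra; peak calcium fluorescence normalized to 1 μM apelin-13 as 100% to derive EC50.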

| Compound | EC50 [nM] |
| --- | --- |
| CCC(CC)n1c(Cc2cccs2)nc2cc(C(=O)N[C@@H](CC(C)C)C(=O)N3CCN(c4ccccc4OC)CC3)ccc21 [Example 315, 1-(1-Ethyl-propyl)-2-thiophen-2-ylmethyl-1H-benzoimidazole-5-carboxylic acid {(S)-1-[4-(2-methoxy-phenyl)-piperazine-1-carbonyl]-3-methyl-butyl}-amide] | 2450 |
| CCC(CC)n1c(Cc2cccs2)nc2cc(C(=O)N[C@@H](CC(C)C)C(=O)Nc3cccc(N(C)C)c3)ccc21 [Example 316, 1-(1-Ethyl-propyl)-2-thiophen-2-ylmethyl-1H-benzoimidazole-5-carboxylic acid [(S)-1-(3-dimethylamino-phenylcarbamoyl)-3-methyl-butyl]-amide] | 22000 |
| CCC(CC)n1c(Cc2cccs2)nc2cc(C(=O)N[C@@H](CC(C)C)C(=O)NC3CCN(c4ccccc4)CC3)ccc21 [Example 317, 1-(1-Ethyl-propyl)-2-thiophen-2-ylmethyl-1H-benzoimidazole-5-carboxylic acid [(S)-3-methyl-1-(1-phenyl-piperidin-4-ylcarbamoyl)-butyl]-amide] | 14000 |
| CCC(CC)n1c(Cc2cccs2)nc2cc(C(=O)N[C@@H](CC(C)C)C(=O)N3CCN(C4CCCCC4)CC3)ccc21 [Example 318, 1-(1-Ethyl-propyl)-2-thiophen-2-ylmethyl-1H-benzoimidazole-5-carboxylic acid [(S)-1-(4-cyclohexyl-piperazine-1-carbonyl)-3-methyl-butyl]-amide] | 2860 |
| CCC(CC)n1c(Cc2cccs2)nc2cc(C(=O)N[C@@H](CC(C)C)C(=O)NC3CCN(Cc4ccccc4)C3)ccc21 (stereo partly drawn) [Example 319, 1-(1-Ethyl-propyl)-2-thiophen-2-ylmethyl-1H-benzoimidazole-5-carboxylic acid [(S)-1-(1-benzyl-pyrrolidin-3-ylcarbamoyl)-3-methyl-butyl]-amide] | 1520 |
| CCC(CC)n1c(Cc2cccs2)nc2cc(C(=O)N[C@@H](CC(C)C)C(=O)NCCCN3CCC(C)CC3)ccc21 [Example 320, 1-(1-Ethyl-propyl)-2-thiophen-2-ylmethyl-1H-benzoimidazole-5-carboxylic acid {(S)-3-methyl-1-[3-(4-methyl-piperidin-1-yl)-propylcarbamoyl]-butyl}-amide] | 386 |
| CCC(CC)n1c(Cc2cccs2)nc2cc(C(=O)N[C@@H](CC(C)C)C(=O)N3CCN(C4CCCC4)CC3)ccc21 [Example 321, 1-(1-Ethyl-propyl)-2-thiophen-2-ylmethyl-1H-benzoimidazole-5-carboxylic acid [(S)-1-(4-cyclopentyl-piperazine-1-carbonyl)-3-methyl-butyl]-amide] | 1520 |
| CCC(CC)n1c(Cc2cccs2)nc2cc(C(=O)N[C@@H](CC(C)C)C(=O)N3CC[C@H](N(C)C)C3)ccc21 [Example 322, 1-(1-Ethyl-propyl)-2-thiophen-2-ylmethyl-1H-benzoimidazole-5-carboxylic acid [(S)-1-((S)-3-dimethylamino-pyrrolidine-1-carbonyl)-3-methyl-butyl]-amide] | 244 |
| CCC(CC)n1c(Cc2cccs2)nc2cc(C(=O)N[C@@H](CC(C)C)C(=O)N3CCCN(Cc4ccccc4)CC3)ccc21 [Example 323, 1-(1-Ethyl-propyl)-2-thiophen-2-ylmethyl-1H-benzoimidazole-5-carboxylic acid [(S)-1-(4-benzyl-[1,4]diazepane-1-carbonyl)-3-methyl-butyl]-amide] | 6740 |

More lines, now with the values ahead:

| EC50 [nM] | Compound |
| --- | --- |
| 16800 | CCC(CC)n1c(Cc2cccs2)nc2cc(C(=O)N[C@@H](CC(C)C)C(=O)N3CCCN(Cc4ccc(F)cc4)CC3)ccc21 [Example 324, 1-(1-Ethyl-propyl)-2-thiophen-2-ylmethyl-1H-benzoimidazole-5-carboxylic acid {(S)-1-[4-(4-fluoro-benzyl)-[1,4]diazepane-1-carbonyl]-3-methyl-butyl}-amide] |
| 4410 | CCC(CC)n1c(Cc2cccs2)nc2cc(C(=O)N[C@@H](CC(C)C)C(=O)N3C[C@H]4C[C@@H]3CN4Cc3ccccc3)ccc21 [Example 325, 1-(1-Ethyl-propyl)-2-thiophen-2-ylmethyl-1H-benzoimidazole-5-carboxylic acid [(S)-1-((1R,4R)-5-benzyl-2,5-diaza-bicyclo[2.2.1]heptane-2-carbonyl)-3-methyl-butyl]-amide] |
| 16400 | CCC(CC)n1c(Cc2cccs2)nc2cc(C(=O)N[C@@H](CC(C)C)C(=O)N3CC4CC3CN4c3cccc(F)c3)ccc21 (stereo partly drawn) [Example 326, 1-(1-Ethyl-propyl)-2-thiophen-2-ylmethyl-1H-benzoimidazole-5-carboxylic acid {(S)-1-[5-(3-fluoro-phenyl)-2,5-diaza-bicyclo[2.2.1]heptane-2-carbonyl]-3-methyl-butyl}-amide] |
| 111 | CCC(CC)n1c(Cc2cccs2)nc2cc(C(=O)N[C@@H](CC(C)C)C(=O)NC3CCN(C)CC3)ccc21 [Example 327, 1-(1-Ethyl-propyl)-2-thiophen-2-ylmethyl-1H-benzoimidazole-5-carboxylic acid [(S)-3-methyl-1-(1-methyl-piperidin-4-ylcarbamoyl)-butyl]-amide] |
| 1270 | CCC(CC)n1c(Cc2cccs2)nc2cc(C(=O)N[C@@H](CC(C)C)C(=O)NC3CCN(CCc4ccc(OC)cc4)CC3)ccc21 [Example 328, 1-(1-Ethyl-propyl)-2-thiophen-2-ylmethyl-1H-benzoimidazole-5-carboxylic acid ((S)-1-{1-[2-(4-methoxy-phenyl)-ethyl]-piperidin-4-ylcarbamoyl}-3-methyl-butyl)-amide] |
| 362 | CCC(CC)n1c(Cc2cccs2)nc2cc(C(=O)N[C@@H](CC(C)C)C(=O)N3CCC(N(CC)CC)C3)ccc21 (stereo partly drawn) [Example 329, 1-(1-Ethyl-propyl)-2-thiophen-2-ylmethyl-1H-benzoimidazole-5-carboxylic acid [(S)-1-(3-diethylamino-pyrrolidine-1-carbonyl)-3-methyl-butyl]-amide] |
| 2480 | CCC(CC)n1c(Cc2cccs2)nc2cc(C(=O)N[C@@H](CC(C)C)C(=O)NCC3CN(Cc4ccccc4)CCO3)ccc21 (stereo partly drawn) [Example 330, 1-(1-Ethyl-propyl)-2-thiophen-2-ylmethyl-1H-benzoimidazole-5-carboxylic acid {(S)-1-[(4-benzyl-morpholin-2-ylmethyl)-carbamoyl]-3-methyl-butyl}-amide] |
| 267 | CCCCN1CCC(CNC(=O)[C@H](CC(C)C)NC(=O)c2ccc3c(c2)nc(Cc2cccs2)n3C(CC)CC)CC1 [Example 331, 1-(1-Ethyl-propyl)-2-thiophen-2-ylmethyl-1H-benzoimidazole-5-carboxylic acid {(S)-1-[(1-butyl-piperidin-4-ylmethyl)-carbamoyl]-3-methyl-butyl}-amide] |
| 692 | CCC(CC)n1c(Cc2cccs2)nc2cc(C(=O)N[C@@H](CC(C)C)C(=O)NCCCN3CC(C)CC(C)C3)ccc21 (stereo partly drawn) [Example 332, 1-(1-Ethyl-propyl)-2-thiophen-2-ylmethyl-1H-benzoimidazole-5-carboxylic acid {(S)-1-[3-(3,5-dimethyl-piperidin-1-yl)-propylcarbamoyl]-3-methyl-butyl}-amide] |
| 27300 | CCC(CC)n1c(Cc2cccs2)nc2cc(C(=O)N[C@@H](CC(C)C)C(=O)Nc3cccc(N4CCOCC4)c3)ccc21 [Example 333, 1-(1-Ethyl-propyl)-2-thiophen-2-ylmethyl-1H-benzoimidazole-5-carboxylic acid [(S)-3-methyl-1-(3-morpholin-4-yl-phenylcarbamoyl)-butyl]-amide] |
